Measurements published in US20120009280A1, “METHOD OF REDUCING THE RATE OF DEGRADATION OF A BIOLOGICAL MATERIAL” (Bio-Energy Ingredients Limited, priority 2009, published 2012).

Key:
yeast [1] = experiment: Yeast count of spent brewer's / wet distiller's grains stored at ambient temperature; format: cell-based
mould = experiment: Mould count of spent brewer's / wet distiller's grains stored at ambient temperature; format: cell-based
How it was run: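 Wet grain samples were mixed with a powdered treatment agent in a single initial mix, with no later treatment or agitation. Batches and untreated controls were kept under insect-proof screens at ambient temperature. Every seven days, a whole sample from each treatment went to a SANAS-approved microbiological laboratory. Mould counts were determined there following a procedure similar to Rosentrater et al. (2008).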

[2] = pH of suspensions of grain samples in distilled water or PBS; conditions: 1% (w/w) in distilled water
Protocol: The untreated sample (A) was compared visually against the corresponding quicklime-treated sample (B).
On Day 7, 10 g amounts of each sample were suspended in either 90 ml PBS or 90 ml sterile distilled water and shaken for 10 minutes. The pH of each suspension was then measured and compared.
On Day 9, 10 g of each sample was suspended in 90 ml PBS and shaken for 10 minutes. The pH was measured.

yeast [3] = experiment: Yeast count of spent brewer's / wet distiller's grains stored at ambient temperature; format: cell-based; conditions: dose 10% (w/w)
Protocol: Samples of Portion 1 (“AR”), Portion 3 (“SO”) and Portion 5 (“SH”) were then delivered to a microbiological testing facility about 15 kilometres from the treatment laboratory. Each was tested for initial total microbial, yeast and mould counts, respectively.
Separate untreated samples were similarly stored under insect-proof screens at ambient temperature for seven days (as shown in Tables 1 and 2). During the trial period the ambient temperature ranged from 11 to 33 degrees C.
(§1) The free moisture content on the initial spent brewer's grains was determined to be 78.1% m/m. After exposure to the environment for seven days, all of the samples were tested at a South African National Accreditation System (SANAS) approved microbiological testing facility. Each was tested for total micro-organism, yeast and mould counts to determine the affect of the various treatments. A similar procedure to that described in K. A. Rosentrater et al, Food Bioprocess Technol (2008) was used for the microbiological evaluation.
At the laboratory, the samples were thoroughly mixed and initially split into a first portion (Portion 1) and a second portion (Portion 2). Portion 1 was left untreated. A sample of Portion 1, was delivered immediately to a microbiological testing facility about 15 kilometres away from the treatment laboratory and was tested for initial total microbial, yeast and mould counts, respectively. No water removal prior to treatment was done in this experiment as was the case in Example 8 wherein a similar wet material was partially dewatered by pressing and the residue treated with 10% (w/w/) calcium oxide.
Samples from Portion 2 were subjected to treatment with varying amounts of a powdered, commercially-available calcium oxide containing approximately 94% calcium oxide (CaO) as shown in Table 32. The treatments varied from 2.5 to 10% (w/w) calcium oxide addition. The samples were stored in batches (according to the calcium oxide treatment) under insect-proof screens at ambient temperature for fifty six days. Separate untreated samples were similarly stored under insect-proof screens at ambient temperature for a total of 56 days. During the trial period the ambient temperature ranged from 10 to 30 degrees C. As this period was the southern hemisphere spring/early summer, the humidity as well as ambient temperatures varied widely.
as §1, with “79.4%” for “78.1%”
Samples from each treatment were drawn every seven days. No further calcium oxide treatment or agitation took place after the initial mix. In each case the entire sample was isolated and delivered to the microbiological testing facility.
The calcium oxide treatment trial described in Example 9 wherein wet distiller's grains were treated with 2.5%, 5% and 10.0% calcium oxide, respectively, versus untreated material was repeated using lower doses of calcium oxide. In this trial the same source of wet distiller's grains (again with now partial water removal prior to treatment) was treated. Also, the same protocol as described in Example 9 was applied, but at lower doses of calcium oxide i.e. 0.5%, 1.0%, 1.5%, 2.0% and 2.5%, respectively, versus untreated material.
In this trial the same source of wet distiller's grains (again with now partial water removal prior to treatment) was treated. Also, the same protocol as described in Example 9 was applied.

## [Ca+2].[O-]CC(O)CO.[O-]CC(O)CO [Ca-DGO granules]
Yeast [1]; dose 10% (w/w), week 0
  Yeast Count: <10 cfu/gram
Yeast [1]; dose 10% (w/w), week 1
  Yeast Count: <10 cfu/gram
Yeast [1]; dose 10% (w/w), week 2
  Yeast Count: <10 cfu/gram
Yeast [1]; dose 10% (w/w), week 7
  Yeast Count: <10 cfu/gram
Yeast [1]; dose 10% (w/w), week 8
  Yeast Count: <10 cfu/gram
Yeast [1]; dose 15% (w/w), week 0
  Yeast Count: <10 cfu/gram
Yeast [1]; dose 15% (w/w), week 1
  Yeast Count: <10 cfu/gram
Yeast [1]; dose 15% (w/w), week 2
  Yeast Count: <10 cfu/gram
Yeast [1]; dose 15% (w/w), week 3
  Yeast Count: <10 cfu/gram
Yeast [1]; dose 15% (w/w), week 4
  Yeast Count: <10 cfu/gram
Yeast [1]; dose 15% (w/w), week 5
  Yeast Count: 30 cfu/gram
Yeast [1]; dose 15% (w/w), week 6
  Yeast Count: <10 cfu/gram
Yeast [1]; dose 15% (w/w), week 7
  Yeast Count: <10 cfu/gram
Yeast [1]; dose 15% (w/w), week 8
  Yeast Count: <10 cfu/gram
Yeast [1]; dose 15% (w/w), week 9
  Yeast Count: <10 cfu/gram
mould; dose 10% (w/w), week 0
  Mould Count: <10 cfu/gram
mould; dose 10% (w/w), week 1
  Mould Count: <10 cfu/gram
mould; dose 10% (w/w), week 2
  Mould Count: <10 cfu/gram
mould; dose 10% (w/w), week 3
  Mould Count: <10 cfu/gram
mould; dose 10% (w/w), week 4
  Mould Count: <10 cfu/gram
mould; dose 10% (w/w), week 5
  Mould Count: <10 cfu/gram
mould; dose 10% (w/w), week 6
  Mould Count: <10 cfu/gram
mould; dose 10% (w/w), week 7
  Mould Count: 400 cfu/gram
mould; dose 10% (w/w), week 8
  Mould Count: 250 cfu/gram
mould; dose 10% (w/w), week 9
  Mould Count: <10 cfu/gram
mould; dose 15% (w/w), week 0
  Mould Count: <10 cfu/gram
mould; dose 15% (w/w), week 1
  Mould Count: <10 cfu/gram
mould; dose 15% (w/w), week 2
  Mould Count: <10 cfu/gram
mould; dose 15% (w/w), week 3
  Mould Count: <10 cfu/gram
mould; dose 15% (w/w), week 4
  Mould Count: <10 cfu/gram
mould; dose 15% (w/w), week 5
  Mould Count: <10 cfu/gram
mould; dose 15% (w/w), week 6
  Mould Count: <10 cfu/gram
mould; dose 15% (w/w), week 7
  Mould Count: <10 cfu/gram
mould; dose 15% (w/w), week 8
  Mould Count: <10 cfu/gram
mould; dose 15% (w/w), week 9
  Mould Count: <10 cfu/gram
[2]; dose 10% (w/w), week 0
  pH: 10.2
[2]; dose 10% (w/w), week 1
  pH: 9.87
[2]; dose 10% (w/w), week 2
  pH: 7.09
[2]; dose 10% (w/w), week 3
  pH: 7.90
[2]; dose 10% (w/w), week 4
  pH: 8.89
[2]; dose 10% (w/w), week 5
  pH: 6.83
[2]; dose 10% (w/w), week 6
  pH: 8.93
[2]; dose 10% (w/w), week 7
  pH: 7.24
[2]; dose 10% (w/w), week 8
  pH: 8.63
[2]; dose 10% (w/w), week 9
  pH: 8.96
[2]; dose 15% (w/w), week 0
  pH: 11.53
[2]; dose 15% (w/w), week 1
  pH: 11.35
[2]; dose 15% (w/w), week 2
  pH: 6.61
[2]; dose 15% (w/w), week 3
  pH: 8.03
[2]; dose 15% (w/w), week 4
  pH: 8.54
[2]; dose 15% (w/w), week 5
  pH: 7.20
[2]; dose 15% (w/w), week 6
  pH: 9.25
[2]; dose 15% (w/w), week 7
  pH: 7.21
[2]; dose 15% (w/w), week 8
  pH: 9.17
[2]; dose 15% (w/w), week 9
  pH: 8.95
Yeast [3]; week 3
  Yeast Count: <10 cfu/gram
Yeast [3]; week 4
  Yeast Count: <10 cfu/gram
Yeast [3]; week 5
  Yeast Count: 100 cfu/gram
Yeast [3]; week 6
  Yeast Count: <10 cfu/gram
Yeast [3]; week 9
  Yeast Count: <10 cfu/gram

## [Ca+2].[O-2] [CaO powder]
Yeast [1]; dose 5% (w/w), week 0
  Yeast Count: <10 cfu/gram
Yeast [1]; dose 5% (w/w), week 1
  Yeast Count: <10 cfu/gram
Yeast [1]; dose 5% (w/w), week 2
  Yeast Count: <10 cfu/gram
Yeast [1]; dose 5% (w/w), week 3
  Yeast Count: <10 cfu/gram
Yeast [1]; dose 5% (w/w), week 4
  Yeast Count: <10 cfu/gram
Yeast [1]; dose 5% (w/w), week 5
  Yeast Count: <10 cfu/gram
Yeast [1]; dose 5% (w/w), week 6
  Yeast Count: <10 cfu/gram
Yeast [1]; dose 5% (w/w), week 7
  Yeast Count: <10 cfu/gram
Yeast [1]; dose 5% (w/w), week 8
  Yeast Count: <10 cfu/gram
Yeast [1]; dose 5% (w/w), week 9
  Yeast Count: <10 cfu/gram
Yeast [1]; dose 10% (w/w), week 0
  Yeast Count: <10 cfu/gram
Yeast [1]; dose 10% (w/w), week 1
  Yeast Count: <10 cfu/gram
Yeast [1]; dose 10% (w/w), week 2
  Yeast Count: <10 cfu/gram
Yeast [1]; dose 10% (w/w), week 7
  Yeast Count: <10 cfu/gram
Yeast [1]; dose 10% (w/w), week 8
  Yeast Count: <10 cfu/gram
mould; dose 5% (w/w), week 0
  Mould Count: <10 cfu/gram
mould; dose 5% (w/w), week 1
  Mould Count: <10 cfu/gram
mould; dose 5% (w/w), week 2
  Mould Count: <10 cfu/gram
mould; dose 5% (w/w), week 3
  Mould Count: <10 cfu/gram
mould; dose 5% (w/w), week 4
  Mould Count: <10 cfu/gram
mould; dose 5% (w/w), week 5
  Mould Count: <10 cfu/gram
mould; dose 5% (w/w), week 6
  Mould Count: <10 cfu/gram
mould; dose 5% (w/w), week 7
  Mould Count: <10 cfu/gram
mould; dose 5% (w/w), week 8
  Mould Count: <10 cfu/gram
mould; dose 5% (w/w), week 9
  Mould Count: <10 cfu/gram
mould; dose 10% (w/w), week 0
  Mould Count: <10 cfu/gram
mould; dose 10% (w/w), week 1
  Mould Count: <10 cfu/gram
mould; dose 10% (w/w), week 2
  Mould Count: <10 cfu/gram
mould; dose 10% (w/w), week 3
  Mould Count: <10 cfu/gram
mould; dose 10% (w/w), week 4
  Mould Count: <10 cfu/gram
mould; dose 10% (w/w), week 5
  Mould Count: <10 cfu/gram
mould; dose 10% (w/w), week 6
  Mould Count: <10 cfu/gram
mould; dose 10% (w/w), week 7
  Mould Count: 3500 cfu/gram
mould; dose 10% (w/w), week 8
  Mould Count: <10 cfu/gram
mould; dose 10% (w/w), week 9
  Mould Count: <10 cfu/gram
[2]; dose 5% (w/w), week 0
  pH: 12.93
[2]; dose 5% (w/w), week 1
  pH: 12.05
[2]; dose 5% (w/w), week 2
  pH: 11.19
[2]; dose 5% (w/w), week 3
  pH: 7.82
[2]; dose 5% (w/w), week 4
  pH: 9.23
[2]; dose 5% (w/w), week 5
  pH: 7.55
[2]; dose 5% (w/w), week 6
  pH: 9.23
[2]; dose 5% (w/w), week 7
  pH: 7.28
[2]; dose 5% (w/w), week 8
  pH: 7.60
[2]; dose 5% (w/w), week 9
  pH: 8.45
[2]; dose 10% (w/w), week 0
  pH: 13.12
[2]; dose 10% (w/w), week 1
  pH: 12.56
[2]; dose 10% (w/w), week 2
  pH: 12.38
[2]; dose 10% (w/w), week 3
  pH: 12.36
[2]; dose 10% (w/w), week 4
  pH: 12.20
[2]; dose 10% (w/w), week 5
  pH: 12.12
[2]; dose 10% (w/w), week 6
  pH: 11.92
[2]; dose 10% (w/w), week 7
  pH: 7.56
[2]; dose 10% (w/w), week 8
  pH: 8.38
[2]; dose 10% (w/w), week 9
  pH: 11.77
Yeast [3]; week 3
  Yeast Count: <10 cfu/gram
Yeast [3]; week 4
  Yeast Count: <10 cfu/gram
Yeast [3]; week 5
  Yeast Count: <10 cfu/gram
Yeast [3]; week 6
  Yeast Count: <10 cfu/gram
Yeast [3]; week 9
  Yeast Count: <10 cfu/gram
